Test results published in US20190110993A1, “Solid Nanoparticle Formulation of Water Insoluble Pharmaceutical Substances with Reduced Ostwald Ripening” (priority 2017, published 2019).
Converted amounts (≈) assume the structure as drawn. Read-outs that look alike come from different tables or passages of the source.

Columns and labels:
[1] = after irinotecan; cited from earlier work
[2] = system: PANC-1 human pancreatic tumor xenografts; experiment: PANC-1 xenograft model; assay type: in vivo, athymic nude mice; conditions: PANC-1, 28 mg/kg once every third day for three treatments
Method: The anti-tumor efficacy studies of LBI-1103 in the MDA-MB-468 xenograft model as compared to Taxotere® and in the PANC-1 xenograft model as compared to Taxotere® and Gemcytabine were completed recently. The controls and LBI-1103 were injected intravenously once every other day for three treatments except for PANC-1 xenograft animals, where they were treated with Gemcitabine once every third day for three treatments.
In the PANC-1 xenograft models treated with LBI-1103, Taxotere® and Gemcitabine, a significant reduction in tumor weight was observed after the first day of dosing and this trend continued till the end of the study (FIG. 19).

[3] = in blood; cited from earlier work
[4] = cited from earlier work
[5] = system: topoisomerase I purified from human and rodent tumor cell lines; conditions: more potent than irinotecan; cited from earlier work
human plasma proteins = conditions: cited from earlier work
[6] = cited from earlier work; for solubility in the infusion solution: Jevtana infusion solution

In the case of CCc1c2c(nc3ccc(O[C@@H]4O[C@H](C(=O)O)[C@@H](O)[C@H](O)[C@H]4O)cc13)-c1cc3c(c(=O)n1C2)COC(=O)[C@]3(O)CC [SN-38 glucuronide], the urinary excretion [1] is given as 3%.

In the case of Nc1ccn([C@@H]2O[C@H](CO)[C@@H](O)C2(F)F)c(=O)n1 [Gemcytabine, Gemcitabine], the “tumor regression, mean tumor weight on last day of study compared to Day 1” value [2] is reported as 73%.

In the case of CCc1c2c(nc3ccc(OC(=O)N4CCC(N5CCCCC5)CC4)cc13)-c1cc3c(c(=O)n1C2)COC(=O)[C@]3(O)CC [irinotecan], the “bound to and/or localized in erythrocytes” value [3] is listed as 80%.

For CC(=O)O[C@H]1C(=O)[C@@]2(C)[C@H]([C@H](OC(=O)c3ccccc3)[C@]3(O)C[C@H](OC(=O)[C@H](O)[C@@H](NC(=O)c4ccccc4)c4ccccc4)C(C)=C1C3(C)C)[C@]1(OC(C)=O)CO[C@@H]1C[C@@H]2O [paclitaxel], the solubility in water [4] is given as “about 0.4 mg/L”.

For C/C(=C\c1csc(C)n1)[C@@H]1C[C@@H]2O[C@]2(C)CCC[C@H](C)[C@H](O)[C@@H](C)C(=O)C(C)(C)[C@@H](O)CC(=O)N1 [Ixabepilone], the solubility in water [4] is listed as “about 3.5 mg/L”.

For CC(=O)O[C@@]12CO[C@@H]1C[C@H](O)[C@@]1(C)C(=O)[C@H](O)C3=C(C)[C@@H](OC(=O)[C@H](O)[C@@H](NC(=O)OC(C)(C)C)c4ccccc4)C[C@@](O)([C@@H](OC(=O)c4ccccc4)[C@H]21)C3(C)C [docetaxel], the solubility in water [4] is given as “about 14 mg/L”.

In the case of CCc1c2c(nc3ccc(O)cc13)-c1cc3c(c(=O)n1C2)COC(=O)[C@]3(O)CC [SN-38], the “potency as inhibitor of topoisomerase I relative to irinotecan” value [5] is listed as “approximately 1000 times”, the “plasma protein binding (bound)” value (human plasma proteins; SN-38: human plasma proteins, mainly albumin) is listed as “approximately 95%” and the “binding to plasma proteins” value (human plasma proteins; adults and pediatric patients, independent of serum albumin levels) is listed as 94-96%. For the same compound, the urinary excretion [1] was under 1% and the “bound, mainly to albumin and lymphocytes, also erythrocytes and neutrophils” value [3] was “at least 99%”.

In the case of CO[C@H]1C(=O)[C@]2(C)[C@@H](OC)C[C@H]3OC[C@@]3(OC(C)=O)[C@H]2[C@H](OC(=O)c2ccccc2)[C@]2(O)C[C@H](OC(=O)[C@H](O)[C@@H](NC(=O)OC(C)(C)C)c3ccccc3)C(C)=C1C2(C)C [cabazitaxel], the solubility in water [4] is given as “about 8 mg/L”, the “solubility in the infusion solution” value ([6]; 5° C.) is given as 80 µg/mL (≈ 95.7 µM) and the “solubility in the infusion solution” value ([6]; 25° C.) is given as 60 µg/mL (≈ 71.8 µM). The “solubility in the premix” value ([6]; Jevtana premix solution (cabazitaxel concentration 10 mg/mL)) was 3440 µg/mL (≈ 4120 µM).
